What was measured:
Settings in all cases: binder
Haspin = molecular target: T1, Haspin (Homo sapiens, UniProt Q8TF76)
T1 sequence (Q8TF76 1-798): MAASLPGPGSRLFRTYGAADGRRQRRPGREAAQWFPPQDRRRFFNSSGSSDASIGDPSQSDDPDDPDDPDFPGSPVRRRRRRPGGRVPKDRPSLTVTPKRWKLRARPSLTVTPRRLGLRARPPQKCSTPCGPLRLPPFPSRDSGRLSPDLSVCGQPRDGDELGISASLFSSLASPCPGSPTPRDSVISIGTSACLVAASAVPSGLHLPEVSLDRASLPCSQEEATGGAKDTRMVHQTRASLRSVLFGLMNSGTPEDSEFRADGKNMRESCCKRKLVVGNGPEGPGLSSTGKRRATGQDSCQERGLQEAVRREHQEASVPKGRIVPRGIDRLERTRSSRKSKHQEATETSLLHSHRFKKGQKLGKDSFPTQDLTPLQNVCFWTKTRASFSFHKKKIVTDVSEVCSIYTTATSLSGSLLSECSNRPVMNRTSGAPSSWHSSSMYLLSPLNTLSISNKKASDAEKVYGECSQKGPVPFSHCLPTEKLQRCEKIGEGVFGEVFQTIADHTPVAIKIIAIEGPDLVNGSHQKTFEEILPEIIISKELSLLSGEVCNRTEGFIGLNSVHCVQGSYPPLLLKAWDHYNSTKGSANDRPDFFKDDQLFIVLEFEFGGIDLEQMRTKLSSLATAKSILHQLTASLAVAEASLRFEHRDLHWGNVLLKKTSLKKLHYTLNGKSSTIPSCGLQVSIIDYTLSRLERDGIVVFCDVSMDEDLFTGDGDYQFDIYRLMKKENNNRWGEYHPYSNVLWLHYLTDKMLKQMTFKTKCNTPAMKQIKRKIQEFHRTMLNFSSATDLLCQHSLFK

Erk2 = Erk2 (Homo sapiens, UniProt P28482)
MAP2K6 = molecular target: T2, MAP2K6 (Homo sapiens, UniProt P52564)
T2 sequence (P52564 1-334): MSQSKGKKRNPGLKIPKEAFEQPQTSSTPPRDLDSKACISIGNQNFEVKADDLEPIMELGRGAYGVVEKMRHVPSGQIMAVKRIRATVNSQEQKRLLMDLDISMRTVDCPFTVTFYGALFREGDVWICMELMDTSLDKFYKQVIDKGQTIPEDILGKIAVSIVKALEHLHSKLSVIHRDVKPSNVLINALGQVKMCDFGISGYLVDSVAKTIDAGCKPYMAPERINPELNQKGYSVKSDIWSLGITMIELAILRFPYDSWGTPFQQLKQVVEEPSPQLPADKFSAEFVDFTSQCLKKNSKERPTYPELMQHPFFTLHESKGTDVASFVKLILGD

SLK = SLK (Homo sapiens, UniProt Q9H2G2)
JNK1 = JNK1 (Homo sapiens, UniProt P45983)
DMPK1 = molecular target: T3, DMPK1 (Homo sapiens, UniProt Q09013)
T3 sequence (Q09013 1-629): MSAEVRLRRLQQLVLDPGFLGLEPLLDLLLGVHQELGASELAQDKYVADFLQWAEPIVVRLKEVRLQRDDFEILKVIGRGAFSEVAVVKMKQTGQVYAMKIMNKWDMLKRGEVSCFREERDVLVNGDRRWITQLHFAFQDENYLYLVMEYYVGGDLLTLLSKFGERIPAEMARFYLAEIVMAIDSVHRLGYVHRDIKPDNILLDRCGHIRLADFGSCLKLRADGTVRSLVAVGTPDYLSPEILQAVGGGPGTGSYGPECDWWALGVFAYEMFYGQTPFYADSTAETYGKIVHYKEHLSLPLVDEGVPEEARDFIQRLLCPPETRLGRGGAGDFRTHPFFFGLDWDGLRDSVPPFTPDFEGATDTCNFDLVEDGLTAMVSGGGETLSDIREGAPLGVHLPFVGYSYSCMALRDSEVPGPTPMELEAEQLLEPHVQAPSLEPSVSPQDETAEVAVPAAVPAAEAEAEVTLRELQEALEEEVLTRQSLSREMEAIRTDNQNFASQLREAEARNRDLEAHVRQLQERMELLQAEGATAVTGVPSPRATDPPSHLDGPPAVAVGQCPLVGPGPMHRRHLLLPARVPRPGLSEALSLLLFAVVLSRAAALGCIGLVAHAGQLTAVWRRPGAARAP

FGFR1 = FGFR1 (Homo sapiens, UniProt P11362)
Erk3 = Erk3 (Homo sapiens, UniProt Q16659)
LOK = LOK (Homo sapiens, UniProt O94804)
CLK3 = CLK3 (Homo sapiens, UniProt P49761)
TAF1 = TAF1 (Homo sapiens, UniProt P21675)
Chain of TAF1 (P21675 whole entry): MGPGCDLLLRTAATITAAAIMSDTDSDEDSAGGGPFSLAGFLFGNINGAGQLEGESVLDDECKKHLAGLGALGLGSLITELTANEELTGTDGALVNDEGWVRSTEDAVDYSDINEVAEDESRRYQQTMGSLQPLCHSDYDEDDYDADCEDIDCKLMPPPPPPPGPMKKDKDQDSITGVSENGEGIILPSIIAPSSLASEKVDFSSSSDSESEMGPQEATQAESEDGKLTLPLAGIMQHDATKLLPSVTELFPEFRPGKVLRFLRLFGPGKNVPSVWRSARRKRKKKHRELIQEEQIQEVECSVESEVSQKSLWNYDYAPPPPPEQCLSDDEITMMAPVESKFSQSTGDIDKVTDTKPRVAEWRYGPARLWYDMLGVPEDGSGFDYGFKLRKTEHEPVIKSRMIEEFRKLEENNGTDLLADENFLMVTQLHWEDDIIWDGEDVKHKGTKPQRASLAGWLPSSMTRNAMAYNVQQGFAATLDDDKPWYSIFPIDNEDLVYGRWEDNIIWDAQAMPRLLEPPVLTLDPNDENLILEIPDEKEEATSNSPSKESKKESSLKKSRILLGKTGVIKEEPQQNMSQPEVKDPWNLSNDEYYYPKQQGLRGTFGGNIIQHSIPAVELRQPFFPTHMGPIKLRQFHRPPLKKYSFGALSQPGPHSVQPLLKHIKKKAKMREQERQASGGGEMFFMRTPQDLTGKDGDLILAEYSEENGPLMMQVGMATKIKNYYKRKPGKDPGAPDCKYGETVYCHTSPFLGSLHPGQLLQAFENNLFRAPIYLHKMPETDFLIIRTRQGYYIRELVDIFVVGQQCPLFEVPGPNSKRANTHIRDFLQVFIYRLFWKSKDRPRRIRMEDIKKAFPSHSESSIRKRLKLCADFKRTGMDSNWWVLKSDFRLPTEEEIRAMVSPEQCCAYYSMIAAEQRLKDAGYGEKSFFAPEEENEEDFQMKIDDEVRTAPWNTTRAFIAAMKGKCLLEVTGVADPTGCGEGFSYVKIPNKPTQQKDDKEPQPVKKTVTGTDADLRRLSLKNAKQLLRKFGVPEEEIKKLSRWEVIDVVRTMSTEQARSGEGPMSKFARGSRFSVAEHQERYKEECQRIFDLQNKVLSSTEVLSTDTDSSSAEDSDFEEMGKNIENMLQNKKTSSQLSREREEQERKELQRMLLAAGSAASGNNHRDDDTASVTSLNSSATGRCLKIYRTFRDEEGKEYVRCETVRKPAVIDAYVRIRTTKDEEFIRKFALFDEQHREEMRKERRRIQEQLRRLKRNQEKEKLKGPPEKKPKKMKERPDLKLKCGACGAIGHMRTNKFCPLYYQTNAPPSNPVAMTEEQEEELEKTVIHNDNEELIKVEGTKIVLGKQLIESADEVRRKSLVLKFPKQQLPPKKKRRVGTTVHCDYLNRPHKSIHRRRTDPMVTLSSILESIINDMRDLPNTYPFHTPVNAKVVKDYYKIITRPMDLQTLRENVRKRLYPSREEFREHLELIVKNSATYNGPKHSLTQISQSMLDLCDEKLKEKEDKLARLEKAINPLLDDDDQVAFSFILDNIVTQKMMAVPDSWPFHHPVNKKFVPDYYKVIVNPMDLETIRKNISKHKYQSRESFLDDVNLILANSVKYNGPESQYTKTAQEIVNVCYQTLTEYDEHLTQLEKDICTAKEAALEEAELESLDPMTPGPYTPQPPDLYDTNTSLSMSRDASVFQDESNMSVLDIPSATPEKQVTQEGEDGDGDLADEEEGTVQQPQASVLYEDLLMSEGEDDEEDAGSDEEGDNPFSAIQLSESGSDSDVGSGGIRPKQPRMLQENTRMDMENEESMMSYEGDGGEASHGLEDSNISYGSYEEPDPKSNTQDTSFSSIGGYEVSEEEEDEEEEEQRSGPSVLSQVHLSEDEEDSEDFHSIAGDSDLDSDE

Chain of Erk2 (P28482 whole entry): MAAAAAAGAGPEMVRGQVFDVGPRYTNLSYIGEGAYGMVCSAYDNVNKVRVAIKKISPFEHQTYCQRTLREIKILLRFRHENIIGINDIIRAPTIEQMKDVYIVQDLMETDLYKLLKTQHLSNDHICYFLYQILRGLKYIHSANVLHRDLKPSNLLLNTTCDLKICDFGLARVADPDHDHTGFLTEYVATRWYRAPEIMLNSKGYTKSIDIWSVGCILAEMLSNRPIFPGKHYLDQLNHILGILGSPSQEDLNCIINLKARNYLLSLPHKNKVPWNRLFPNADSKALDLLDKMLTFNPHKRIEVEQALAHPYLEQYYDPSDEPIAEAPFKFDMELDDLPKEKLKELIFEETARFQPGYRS
Chain of SLK (Q9H2G2 whole entry): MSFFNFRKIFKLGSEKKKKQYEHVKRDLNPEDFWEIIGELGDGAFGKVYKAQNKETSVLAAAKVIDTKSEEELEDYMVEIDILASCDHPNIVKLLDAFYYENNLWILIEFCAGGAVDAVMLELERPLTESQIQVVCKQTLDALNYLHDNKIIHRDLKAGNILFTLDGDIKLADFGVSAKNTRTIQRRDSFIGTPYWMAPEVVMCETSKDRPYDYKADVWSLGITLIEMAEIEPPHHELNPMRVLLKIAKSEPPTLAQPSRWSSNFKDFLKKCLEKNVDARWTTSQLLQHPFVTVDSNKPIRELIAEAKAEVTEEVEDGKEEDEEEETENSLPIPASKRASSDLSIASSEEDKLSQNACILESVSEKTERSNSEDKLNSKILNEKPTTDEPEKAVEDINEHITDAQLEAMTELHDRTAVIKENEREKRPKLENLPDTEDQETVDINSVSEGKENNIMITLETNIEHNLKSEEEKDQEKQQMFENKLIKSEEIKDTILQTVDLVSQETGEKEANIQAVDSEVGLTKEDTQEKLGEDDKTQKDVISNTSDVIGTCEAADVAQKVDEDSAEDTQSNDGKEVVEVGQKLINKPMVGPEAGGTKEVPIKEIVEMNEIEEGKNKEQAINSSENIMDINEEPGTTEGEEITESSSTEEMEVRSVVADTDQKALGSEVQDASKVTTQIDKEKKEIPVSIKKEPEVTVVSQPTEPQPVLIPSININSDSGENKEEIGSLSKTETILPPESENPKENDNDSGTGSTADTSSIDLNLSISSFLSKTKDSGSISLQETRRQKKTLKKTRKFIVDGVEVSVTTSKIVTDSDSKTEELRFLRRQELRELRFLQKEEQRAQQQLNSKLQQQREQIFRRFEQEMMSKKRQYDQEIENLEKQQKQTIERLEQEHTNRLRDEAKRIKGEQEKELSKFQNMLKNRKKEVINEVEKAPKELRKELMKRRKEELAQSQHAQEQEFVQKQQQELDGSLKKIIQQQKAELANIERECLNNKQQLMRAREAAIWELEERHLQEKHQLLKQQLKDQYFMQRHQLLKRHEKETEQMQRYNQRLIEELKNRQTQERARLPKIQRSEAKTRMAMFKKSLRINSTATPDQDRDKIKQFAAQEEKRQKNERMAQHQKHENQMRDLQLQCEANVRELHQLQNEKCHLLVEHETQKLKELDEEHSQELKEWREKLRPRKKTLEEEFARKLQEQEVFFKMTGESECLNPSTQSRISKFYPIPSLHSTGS
Chain of LOK (O94804 whole entry): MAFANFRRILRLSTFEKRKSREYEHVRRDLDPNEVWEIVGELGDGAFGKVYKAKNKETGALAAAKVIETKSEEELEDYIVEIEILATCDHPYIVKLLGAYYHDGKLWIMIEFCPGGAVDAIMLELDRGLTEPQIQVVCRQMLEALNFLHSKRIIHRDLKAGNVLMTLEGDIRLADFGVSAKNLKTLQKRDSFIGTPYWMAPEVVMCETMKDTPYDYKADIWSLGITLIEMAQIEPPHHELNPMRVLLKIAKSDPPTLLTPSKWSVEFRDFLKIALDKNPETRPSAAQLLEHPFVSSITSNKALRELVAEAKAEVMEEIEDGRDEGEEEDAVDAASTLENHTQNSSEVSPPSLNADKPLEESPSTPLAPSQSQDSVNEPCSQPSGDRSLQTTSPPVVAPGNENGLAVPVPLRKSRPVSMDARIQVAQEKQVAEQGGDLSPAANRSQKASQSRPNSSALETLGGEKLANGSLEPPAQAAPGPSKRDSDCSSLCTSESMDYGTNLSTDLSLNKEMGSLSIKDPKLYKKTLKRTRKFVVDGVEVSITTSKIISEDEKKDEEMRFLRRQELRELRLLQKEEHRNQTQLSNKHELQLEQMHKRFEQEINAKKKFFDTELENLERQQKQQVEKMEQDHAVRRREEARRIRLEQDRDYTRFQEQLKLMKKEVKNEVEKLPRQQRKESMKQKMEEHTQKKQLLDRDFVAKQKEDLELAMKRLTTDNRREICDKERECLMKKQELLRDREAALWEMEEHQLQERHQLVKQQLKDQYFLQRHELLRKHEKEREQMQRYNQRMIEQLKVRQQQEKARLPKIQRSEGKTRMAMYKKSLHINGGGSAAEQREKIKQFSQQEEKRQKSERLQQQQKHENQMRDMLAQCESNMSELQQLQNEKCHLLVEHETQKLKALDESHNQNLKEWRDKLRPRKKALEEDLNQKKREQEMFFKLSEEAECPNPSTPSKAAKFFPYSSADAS
Chain of JNK1 (P45983 whole entry): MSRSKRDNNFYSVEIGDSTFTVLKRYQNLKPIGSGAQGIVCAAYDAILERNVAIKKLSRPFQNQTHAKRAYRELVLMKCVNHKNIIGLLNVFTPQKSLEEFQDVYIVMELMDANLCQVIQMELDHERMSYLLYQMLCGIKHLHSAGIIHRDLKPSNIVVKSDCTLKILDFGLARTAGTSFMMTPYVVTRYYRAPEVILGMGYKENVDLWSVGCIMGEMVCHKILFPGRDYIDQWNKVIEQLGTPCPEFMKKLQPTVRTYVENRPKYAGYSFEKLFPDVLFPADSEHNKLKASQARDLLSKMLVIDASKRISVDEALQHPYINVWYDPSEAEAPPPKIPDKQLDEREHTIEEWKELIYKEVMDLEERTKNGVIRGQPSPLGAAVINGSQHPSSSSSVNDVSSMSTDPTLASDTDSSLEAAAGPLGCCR

COc1cc(N2CCN(C)CC2)ccc1Nc1ncc2cc(-c3ccc(-c4cccc(C)n4)cc3Cl)c(=O)n(CCCCN)c2n1 [compound 36, 8-(4-Aminobutyl)-6-(2-chloro-4-(6-methylpyridin-2-yl)phenyl)-2-((2-methoxy-4-(4-methylpiperazin-1-yl)phenyl)amino)pyrido[2,3-d]pyrimidin-7(8H)-one]
dTm 36 (Haspin): -0.7 °C | dTm 36 (Erk2): -2.7 °C | dTm 36 (MAP2K6): 4.4 °C | dTm 36 (SLK): 4.2 °C | dTm 36 (JNK1): 1.7 °C | dTm 36 (DMPK1): -1.5 °C | dTm 36 (FGFR1): 2.0 °C | dTm 36 (Erk3): 0.5 °C | dTm 36 (LOK): -0.4 °C | dTm 36 (CLK3): -0.7 °C | dTm 36 (TAF1): -0.4 °C

COc1cc(N2CCOCC2)ccc1Nc1ncc2cc(-c3ccc(-c4cccc(C)n4)cc3Cl)c(=O)n(CCCCN)c2n1 [compound 35, 8-(4-Aminobutyl)-6-(2-chloro-4-(6-methylpyridin-2-yl)phenyl)-2-((2-methoxy-4-morpholino-phenyl)amino)pyrido[2,3-d]pyrimidin-7(8H)-one]
dTm 35 (Haspin): -0.1 °C | dTm 35 (Erk2): -3.0 °C | dTm 35 (MAP2K6): 6.8 °C | dTm 35 (SLK): 5.1 °C | dTm 35 (JNK1): 4.7 °C | dTm 35 (DMPK1): -2.1 °C | dTm 35 (FGFR1): 0.4 °C | dTm 35 (Erk3): 0.6 °C | dTm 35 (LOK): -0.8 °C | dTm 35 (CLK3): -1.3 °C | dTm 35 (TAF1): -0.7 °C

Cc1cccc(-c2ccc(-c3cc4cnc(Nc5ccc(F)c(CO)c5)nc4n(CCCCN)c3=O)c(Cl)c2)n1 [compound 33, 8-(4-Aminobutyl)-6-(2-chloro-4-(6-methylpyridin-2-yl)phenyl)-2-((4-fluoro-3-(hydroxymethyl)phenyl)amino)pyrido[2,3-d]pyrimidin-7(8H)-one]
dTm 33 (Haspin): -0.2 °C | dTm 33 (Erk2): -0.7 °C | dTm 33 (MAP2K6): 10.2 °C | dTm 33 (SLK): 8.0 °C | dTm 33 (JNK1): 2.2 °C | dTm 33 (DMPK1): -4.7 °C | dTm 33 (FGFR1): 2.0 °C | dTm 33 (Erk3): 0.9 °C | dTm 33 (LOK): -0.3 °C | dTm 33 (CLK3): -0.5 °C | dTm 33 (TAF1): -0.2 °C

COc1ccc(O)c(Nc2ncc3cc(-c4ccc(-c5cccc(C)n5)cc4Cl)c(=O)n(CCCCN)c3n2)c1 [compound 34, 8-(4-Aminobutyl)-6-(2-chloro-4-(6-methylpyridin-2-yl)phenyl)-2-((2-hydroxy-5-methoxy-phenyl)amino)pyrido[2,3-d]pyrimidin-7(8H)-one]
dTm 34 (Haspin): -0.2 °C | dTm 34 (Erk2): -2.7 °C | dTm 34 (MAP2K6): 5.4 °C | dTm 34 (SLK): 4.7 °C | dTm 34 (JNK1): 1.8 °C | dTm 34 (DMPK1): -0.8 °C | dTm 34 (FGFR1): 0.9 °C | dTm 34 (Erk3): 0.7 °C | dTm 34 (LOK): -0.3 °C | dTm 34 (CLK3): -1.0 °C | dTm 34 (TAF1): 0.1 °C

— article doi:10.1101/2023.11.24.568596v1 (biorxiv, 2023)
